Our source for the GFP fluorescence (kMESF), higher = increase values is PubChem BioAssay AID2742 (NMMLSC, 2010).

Activity calls are given as the source filed them.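 The calls were made as follows: active = fitted half-maximal concentration for changing background-corrected GFP signal at or below a set limit; inactive = the rest.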

The nature of this assay: TOR pathway reporter MEP2-GFP, concentration series – S. cerevisiae, flow cytometry GFP, MLPCN hits, dose response (AID 2742).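 Also: GFP tag reports level of MEP2 protein as a downstream target of TOR signalling.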 Particulars: S. cerevisiae MEP2-GFP strain, flow cytometry fluorescence, 3 h; at 33 µM (top of the series). Background: A flow cytometer gives signals particle by particle.
For the molecule `NC(=O)COc1ccc(C(=O)/C=C2/C(=O)Nc3ccccc32)cc1`, the GFP fluorescence (kMESF), higher = increase was 3.66 kMESF (inactive).

With `C#CCOCCOCCOCCNc1nc(N2CCN(C(=O)CCCCCCCCCCNC(=O)[C@@H](CCC(=O)O)n3cc(CCCCCN)nn3)CC2)nc(N2CCN(C(=O)CCCCCCCCCCNC(=O)[C@H](CCCCN)n3cc(C[C@@H](C)CC)nn3)CC2)n1`, the GFP fluorescence (kMESF), higher = increase is 3.84 kMESF (inactive).

For the molecule `CCN1/C(=C/C(C)=C/c2sc3ccccc3[n+]2CC)Sc2ccccc21`, the GFP fluorescence (kMESF), higher = increase is 4.91 kMESF (inactive).

Turning to `CCC(=O)Nc1ccc(NC(=O)c2cc3ccccc3o2)c(OC)c1`, the GFP fluorescence (kMESF), higher = increase was 2.4 kMESF (inactive).

With `Cc1cccc(/C=C/C(=O)c2ccc([N+](=O)[O-])o2)c1`, the GFP fluorescence (kMESF), higher = increase was 5.78 kMESF (inactive).

In the case of `CC(=O)N(C(C)=O)c1ncnc2c1c(-c1ccc(Cl)cc1)nn2C(C)(C)C`, the GFP fluorescence (kMESF), higher = increase was 1.85 kMESF (inactive).

With `O=C(Nc1ccc(N2CCOCC2)cc1)C1CCN(S(=O)(=O)c2ccc3c(c2)OCCO3)CC1`, the GFP fluorescence (kMESF), higher = increase is 2 kMESF (inactive).

For the molecule `O=[N+]([O-])c1cc(Cl)c2cccnc2c1O`, the GFP fluorescence (kMESF), higher = increase is 5.35 kMESF (inactive).

With `Oc1c(Br)cc(Br)cc1C=Nc1ccc2[nH]ncc2c1`, the GFP fluorescence (kMESF), higher = increase was 5.46 kMESF (inactive).

`CCCOc1ccc(C(=O)NNC(=S)NC(=O)CC)cc1`: the GFP fluorescence (kMESF), higher = increase was 4.12 kMESF (inactive).

For `Cc1[nH][nH]c(=O)c1C(c1ccc(-c2ccc(Cl)cc2)o1)c1c(C)[nH][nH]c1=O`, the GFP fluorescence (kMESF), higher = increase was 3.72 kMESF (inactive).

Take `CSC1=NS(=O)(=O)c2c(C)nn(C)c2S1`: the GFP fluorescence (kMESF), higher = increase is 4.13 kMESF (inactive).

Regarding `CN(C)NC(=S)Nc1ccc(S(=O)(=O)N2CCCCC2)cc1`, the GFP fluorescence (kMESF), higher = increase was 1.92 kMESF (inactive).

For the molecule `C=CCN1C(=O)/C(=C/c2cccs2)C(=O)NC1=S`, the GFP fluorescence (kMESF), higher = increase was 3.81 kMESF (inactive).

In the case of `CCCCCn1c(=O)c(C(=O)Nc2nc3ccccc3[nH]2)c(O)c2ccccc21`, the GFP fluorescence (kMESF), higher = increase was 1.97 kMESF (inactive).

As to `CCn1c(=O)c(C(C)=O)c(O)c2ccccc21`, the GFP fluorescence (kMESF), higher = increase was 3.81 kMESF (inactive).

On to `O=C1C=CC(=O)N1N(c1ccccc1)c1ccccc1`, for which the GFP fluorescence (kMESF), higher = increase was 4.7 kMESF (inactive).

Turning to `Cc1ccc(C(=O)/C=C/C(=O)c2ccc(C)cc2)cc1`, the GFP fluorescence (kMESF), higher = increase was 3.81 kMESF (inactive).

`CCCCC(=O)NC(=S)NNC(=O)CCc1ccccc1`: the GFP fluorescence (kMESF), higher = increase was 3.11 kMESF (inactive).

In the case of `COc1ccc(/C=C/C(=O)c2cc(Br)ccc(=O)c2O)cc1`, the GFP fluorescence (kMESF), higher = increase was -51.6 kMESF (inactive).

Consider `O=C(O)c1cccc(S(=O)(=O)Nc2ccc(S(=O)(=O)N3CCOCC3)cc2)c1`, for which the GFP fluorescence (kMESF), higher = increase was 2.77 kMESF (inactive).

Take `Cc1cc(=O)oc2cc(Oc3ccc([N+](=O)[O-])cc3C(F)(F)F)ccc12`: the GFP fluorescence (kMESF), higher = increase is 2.42 kMESF (inactive).

`Cc1c(Br)c(=O)oc2c(Br)c(O)c(O)cc12`: the GFP fluorescence (kMESF), higher = increase is 2.07 kMESF (inactive).

`COc1ccc([N+](=O)[O-])c(S(=O)(=O)c2ccc(Cl)cc2)n1`: the GFP fluorescence (kMESF), higher = increase is 4.42 kMESF (inactive).

On to `Cc1ccc(NC(=O)ON=C2CCCC2)cc1`, for which the GFP fluorescence (kMESF), higher = increase was 3.26 kMESF (inactive).

As for `CCCc1nnc(NC(=O)c2c(O)c3cccc4c3n(c2=O)CCC4)s1`, the GFP fluorescence (kMESF), higher = increase was -1.47 kMESF (inactive).

For `COc1ccc2c(c1)c1nnc(SC)nc1n2C`, the GFP fluorescence (kMESF), higher = increase is 1.9 kMESF (inactive).

Regarding `CCOC(=O)/C(=C\c1cn(C)c2ccccc12)[N+](=O)[O-]`, the GFP fluorescence (kMESF), higher = increase is 6.34 kMESF (inactive).

For the molecule `Oc1c(Br)cc(Br)cc1C=Nc1ccc2c(c1)OCO2`, the GFP fluorescence (kMESF), higher = increase is 5.35 kMESF (inactive).

With `Cc1ccc(/C=C/C(=O)c2ccc([N+](=O)[O-])o2)cc1`, the GFP fluorescence (kMESF), higher = increase was 3.92 kMESF (inactive).

As to `COc1ccc(/C=C2\C(=O)ON=C2c2ccccc2)cc1`, the GFP fluorescence (kMESF), higher = increase is 4.38 kMESF (inactive).

Regarding `COc1ccc(NC2=C(Cl)C(=O)N(CCc3ccccc3)C2=O)cc1`, the GFP fluorescence (kMESF), higher = increase was 2.7 kMESF (inactive).

For `Oc1ccc2ccccc2c1/C=N/Nc1nnc(-c2ncc[nH]2)c2ccccc12`, the GFP fluorescence (kMESF), higher = increase was -21.2 kMESF (inactive).

For `CCN(CC(=O)Nc1cc(S(=O)(=O)N2CCOCC2)ccc1Cl)Cc1ccccc1`, the GFP fluorescence (kMESF), higher = increase is 2.25 kMESF (inactive).

`Oc1ccc(Br)cc1/C=N/Nc1ccccn1`: the GFP fluorescence (kMESF), higher = increase was 3.94 kMESF (inactive).

`O=C(/C=C/c1ccnc2ccccc12)c1cccs1`: the GFP fluorescence (kMESF), higher = increase was 4.23 kMESF (inactive).

On to `COc1cccc(C(=O)Nc2nnc(-c3ccc(Cl)cc3)o2)c1`, for which the GFP fluorescence (kMESF), higher = increase is 4.71 kMESF (inactive).

For `Cc1cc(C)c2c(c1)/C(=C/C(=O)c1ccc(Br)s1)C(=O)N2`, the GFP fluorescence (kMESF), higher = increase was 3.51 kMESF (inactive).

Turning to `COc1ccccc1[C@@]1(C)ON(c2ccccc2C(F)(F)F)C1=O`, the GFP fluorescence (kMESF), higher = increase is 5.08 kMESF (inactive).

On to `COc1cc(CNC(=O)CCCCCCC(C)C)ccc1O`, for which the GFP fluorescence (kMESF), higher = increase is 2.32 kMESF (inactive).

For `Cc1ccc(NC(=O)c2cc(N3C(=O)C=CC3=O)ccc2N2CCOCC2)cc1Cl`, the GFP fluorescence (kMESF), higher = increase is 1.96 kMESF (inactive).

On to `Cc1cccc(Nc2nc(-c3ccccn3)cs2)n1`, for which the GFP fluorescence (kMESF), higher = increase is 5.01 kMESF (inactive).

For the molecule `C=CCOc1ccccc1C(=O)/C=C1/C(=O)Nc2ccccc21`, the GFP fluorescence (kMESF), higher = increase was 3.91 kMESF (inactive).

Turning to `N/C(=N\OC(=O)c1cccc(Br)c1)c1ccccc1`, the GFP fluorescence (kMESF), higher = increase is 2.6 kMESF (inactive).

For the molecule `CCOC(=O)c1ccc(N=Cc2nc(-c3ccccc3)oc2OC(C)=O)cc1`, the GFP fluorescence (kMESF), higher = increase is 5.65 kMESF (inactive).

Take `C/C(=N\NC(=O)c1cccc(Br)c1)c1ccccn1`: the GFP fluorescence (kMESF), higher = increase is 4.33 kMESF (inactive).

With `COc1cccc(/C=N/Nc2ccc([N+](=O)[O-])cn2)c1O`, the GFP fluorescence (kMESF), higher = increase was 3.24 kMESF (inactive).

Consider `Cc1ccc2c(c1)c(/C=C/c1cc[n+](C)cc1)c(C)n2C`, for which the GFP fluorescence (kMESF), higher = increase is 9.93 kMESF (inactive).

For `Cc1ccc2[nH]c(C)c(/C=C/c3cc[n+](C)cc3)c2c1`, the GFP fluorescence (kMESF), higher = increase is 4.54 kMESF (inactive).

With `O=C(NOC(=O)c1ccccc1)c1ccccc1`, the GFP fluorescence (kMESF), higher = increase is 5.42 kMESF (inactive).

In the case of `O=c1/c(=C/c2cccc3ccccc23)sc2ncnn12`, the GFP fluorescence (kMESF), higher = increase is 4.23 kMESF (inactive).

For `CCOC(=O)Cn1cc(/C=C/[N+](=O)[O-])c2ccccc21`, the GFP fluorescence (kMESF), higher = increase was 4.22 kMESF (inactive).

Take `COc1ccccc1C(=O)NNC(=S)NC(=O)c1ccco1`: the GFP fluorescence (kMESF), higher = increase is 3.64 kMESF (inactive).

In the case of `CCCCCCCCC/C(=N\O)c1ccccn1`, the GFP fluorescence (kMESF), higher = increase was 3.61 kMESF (inactive).

Consider `Cc1ccc(C(=O)O/N=C(\N)Cc2cccs2)c(Cl)c1`, for which the GFP fluorescence (kMESF), higher = increase is 4.31 kMESF (inactive).

Regarding `Oc1c(C(Nc2cccc(C(F)(F)F)c2)c2ccncc2)ccc2cccnc12` (stereo not given), the GFP fluorescence (kMESF), higher = increase is 4.71 kMESF (inactive).

Take `Cc1cc(O)c(C(=O)/C=C/c2ccc(Cl)cc2)c(=O)o1`: the GFP fluorescence (kMESF), higher = increase was 4.13 kMESF (inactive).

On to `O=C(Oc1ccnc2cc(Cl)ccc12)N1CCOCC1`, for which the GFP fluorescence (kMESF), higher = increase is 2.97 kMESF (inactive).

Consider `CCOC(=O)c1c(C)oc2c1c(C(c1ccncc1)N1CCOCC1)c(O)c1ccccc12` (stereo not given), for which the GFP fluorescence (kMESF), higher = increase is 2.42 kMESF (inactive).

As to `Cc1ccc(S(=O)(=O)N2CCCC2C(=O)NCc2ccncc2)cc1` (stereo not given), the GFP fluorescence (kMESF), higher = increase is 2.1 kMESF (inactive).

As to `CC(=O)Oc1ccc(N2C(=O)C3C4C=CC(CO)(O4)C3C2=O)cc1` (stereo not given), the GFP fluorescence (kMESF), higher = increase was 3.1 kMESF (inactive).

Consider `O=C1CC(c2ccccc2)=NN1c1nc(-c2ccccc2)cs1`, for which the GFP fluorescence (kMESF), higher = increase is 2.83 kMESF (inactive).

`Oc1ccc(N=Nc2ccccc2)o1`: the GFP fluorescence (kMESF), higher = increase is 4.33 kMESF (inactive).

On to `Oc1c(CN2CCN(c3ccccc3)CC2)cc(Br)c2cccnc12`, for which the GFP fluorescence (kMESF), higher = increase was 7.37 kMESF (inactive).

Take `C#CCOCCOCCOCCNc1nc(N2CCN(C(=O)CCCCCCCCCCNC(=O)[C@H](CCCCN)n3cc(CCO)nn3)CC2)nc(N2CCN(C(=O)CCCCCCCCCCNC(=O)[C@H](CCCCN)n3cc(C[C@@H](C)CC)nn3)CC2)n1`: the GFP fluorescence (kMESF), higher = increase was 3.23 kMESF (inactive).

For `CC(C)[C@]1(c2ccc(Cl)cc2)ON(c2ccccc2C(F)(F)F)C1=O`, the GFP fluorescence (kMESF), higher = increase was 2.37 kMESF (inactive).

With `COc1cc(/C=C/[N+](=O)[O-])ccc1O`, the GFP fluorescence (kMESF), higher = increase was 3.88 kMESF (inactive).

In the case of `O=S1(=O)C=C(Sc2nc3ccccc3s2)c2ccccc21`, the GFP fluorescence (kMESF), higher = increase was 5.18 kMESF (inactive).

With `O=C(/C=C/c1cccc([N+](=O)[O-])c1)c1ccc([N+](=O)[O-])o1`, the GFP fluorescence (kMESF), higher = increase was 3.51 kMESF (inactive).

Consider `Cn1c(=O)c(C(=O)NNC(=O)c2ccc(Br)cc2)c(O)c2ccccc21`, for which the GFP fluorescence (kMESF), higher = increase is 3.4 kMESF (inactive).

Turning to `Cc1cccc(N2C(=O)C(Cl)=C(Nc3c(C)n(C)n(-c4ccccc4)c3=O)C2=O)c1C`, the GFP fluorescence (kMESF), higher = increase was 3.31 kMESF (inactive).

For `COc1ccccc1[C@]1(C)ON(c2ccccc2C(F)(F)F)C1=O`, the GFP fluorescence (kMESF), higher = increase is 5.08 kMESF (inactive).

Turning to `COc1ccc(N2C(=O)C(Cl)=C(Nc3c(C)n(C)n(-c4ccccc4)c3=O)C2=O)cc1`, the GFP fluorescence (kMESF), higher = increase was 2.4 kMESF (inactive).

As to `Oc1c(CN2CCN(c3ccc(F)cc3)CC2)cc(Cl)c2cccnc12`, the GFP fluorescence (kMESF), higher = increase is 10.7 kMESF (inactive).

On to `Cc1cc(C)c(S(=O)(=O)ON2C(=O)c3ccccc3C2=O)cc1C`, for which the GFP fluorescence (kMESF), higher = increase is 3.17 kMESF (inactive).
